Test results from patent US11564920B2, “5-heteroaryl-1H-pyrazol-3-amine derivative” (Sumitomo Pharma Co., Ltd., priority 2020, dated 2023).
Entries after “also recorded” stand apart in the source; their conditions may differ.

Key:
ES-2 cells = assay: Cell growth suppression experiment; format: cell-based; conditions: for IC50: Homo sapiens, 48 h, cultured for 2 days, read-out: IC50 (cell growth suppression, ranking); for cell growth suppression effect (in words): compared with prexasertib
Description: ES-2 cells were obtained from the American Type Culture Collection (ATCC). These cells were cultured at 37° C. in the presence of 5% CO2 in a 10% fetal bovine serum, […] penicillin/streptomycin containing McCoy's 5a medium.
500 cells were seeded for each well in a 384-well plate, and the evaluated compound was added so that the final concentration of DMSO would be 0.1% to culture the cells for 2 days. After completion of the culture, the cell viability rate was calculated using CellTiter-Glo® 3D Reagent (Promega, G968B).

hERG current = hERG current (Homo sapiens (Human), UniProt Q12809); assay: hERG current blocking test; conditions: for hERG/CHK1: IC50 of hERG divided by IC50 of CHK1 inhibition of Test Example 1; for IC50: read-out: hERG inhibition IC50, hERG stably expressing CHO cells, Qube384
Description: (§1) The test compounds were added to cultured hERG (human Ether-a-go-go Related Gene) gene stably expressing CHO cell line cells to achieve 0.27 to 100 μM.

CYP3A4 = CYP3A4 (Homo sapiens (Human), UniProt P08684); assay: CYP3A4 MBI and enzyme inactivation clearance evaluation; format: in vitro ADME; conditions: human liver microsome; for microsomal CLint: liver microsomes, probe midazolam or testosterone; for Factor of change in IC50 value: by pre-incubation with NADPH, MBI action when 2-fold or greater
Description: The effect and mode of inhibition of the test compound on CYP3A4 were evaluated using a human liver microsome as an enzyme source and midazolam or testosterone as a substrate. […] The IC50 value was calculated from a concentration plot.

CHK1 = CHK1 (Homo sapiens (Human), UniProt O14757); assay: CHK1 inhibitory activity test (IMAP TR-FRET); format: biochemical; conditions: for effect of suppressing CHK1 activity (in words): compared with prexasertib; for inhibition at 0.0001 µM: read-out: CHK1 inhibition % at 0.1 nM
Description: IMAP TR-FRET Screening Express Kit (R8160) was obtained from Molecular Devices. […] FAM-PKAtide (R7255, Molecular Devices) and FAM-Phospho-PKAtide (R7304, Molecular Devices) were admixed after dilution, and calibration standard systems for phosphorylation levels from 0 to 100% were created. 5 μL of a compound dissolved in a 0.4% DMSO solution was added to a 384 well plate. A compound study group to which 5 μL of each of CHK1, CHK1tide, and ATP was added, and a standard group to which 20 μL of standard was added were created, and subjected to a kinase reaction for 3 hours at 30° C. Subsequently, 60 μL of Binding Reagent (80% Buffer A, 20% Buffer B, 1:600 Binding Reagent, 1:400 Tb-Donor) was added for a binding reaction for 2 hours at room temperature.

hERG = hERG (Homo sapiens (Human), UniProt Q12809); assay: in vitro; conditions: CHO cells stably expressing hERG
Description: as §1

neutrophil count = assay: Measurement of neutrophil count using tumor-bearing mice transplanted with ES-2 cells (Test Example 17); format: in vivo; conditions: 30 mg/kg, 14 days, 2 times/week; 96 hours after final administration
Description: Blood was collected 96 hours after the final administration to measure the neutrophil count.
Ratio of residual neutrophils (%)=(neutrophil count of administration group 96 hours after administration)/(neutrophil count of control administration group 96 hours after administration)×100

Chain of CYP3A4 (P08684 whole entry): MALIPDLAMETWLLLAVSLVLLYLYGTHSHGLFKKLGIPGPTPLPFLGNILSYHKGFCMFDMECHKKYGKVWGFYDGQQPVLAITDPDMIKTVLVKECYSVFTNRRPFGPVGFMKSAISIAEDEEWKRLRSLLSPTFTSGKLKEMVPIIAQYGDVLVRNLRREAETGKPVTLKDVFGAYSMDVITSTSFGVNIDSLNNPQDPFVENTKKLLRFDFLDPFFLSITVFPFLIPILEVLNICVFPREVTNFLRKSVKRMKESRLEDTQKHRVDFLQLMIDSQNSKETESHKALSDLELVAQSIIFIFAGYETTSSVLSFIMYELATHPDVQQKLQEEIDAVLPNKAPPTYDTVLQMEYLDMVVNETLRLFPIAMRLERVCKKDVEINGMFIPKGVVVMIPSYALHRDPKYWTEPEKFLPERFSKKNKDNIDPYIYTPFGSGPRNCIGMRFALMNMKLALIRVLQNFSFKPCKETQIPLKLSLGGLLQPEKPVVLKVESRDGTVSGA
Chain of CHK1 (O14757 whole entry): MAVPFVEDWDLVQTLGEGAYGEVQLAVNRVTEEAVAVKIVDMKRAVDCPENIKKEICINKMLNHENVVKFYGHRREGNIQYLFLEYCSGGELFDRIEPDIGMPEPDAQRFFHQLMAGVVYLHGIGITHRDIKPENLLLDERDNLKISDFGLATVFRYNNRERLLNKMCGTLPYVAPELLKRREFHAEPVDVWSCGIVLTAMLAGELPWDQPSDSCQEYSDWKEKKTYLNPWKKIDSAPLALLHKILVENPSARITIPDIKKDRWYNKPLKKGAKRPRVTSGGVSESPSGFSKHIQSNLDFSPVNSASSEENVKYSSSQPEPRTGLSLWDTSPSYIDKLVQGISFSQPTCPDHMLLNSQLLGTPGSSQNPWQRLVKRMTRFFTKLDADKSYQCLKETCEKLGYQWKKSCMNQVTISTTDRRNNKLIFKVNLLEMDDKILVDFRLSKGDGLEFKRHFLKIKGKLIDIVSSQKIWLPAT
Chain of hERG current (Q12809 whole entry): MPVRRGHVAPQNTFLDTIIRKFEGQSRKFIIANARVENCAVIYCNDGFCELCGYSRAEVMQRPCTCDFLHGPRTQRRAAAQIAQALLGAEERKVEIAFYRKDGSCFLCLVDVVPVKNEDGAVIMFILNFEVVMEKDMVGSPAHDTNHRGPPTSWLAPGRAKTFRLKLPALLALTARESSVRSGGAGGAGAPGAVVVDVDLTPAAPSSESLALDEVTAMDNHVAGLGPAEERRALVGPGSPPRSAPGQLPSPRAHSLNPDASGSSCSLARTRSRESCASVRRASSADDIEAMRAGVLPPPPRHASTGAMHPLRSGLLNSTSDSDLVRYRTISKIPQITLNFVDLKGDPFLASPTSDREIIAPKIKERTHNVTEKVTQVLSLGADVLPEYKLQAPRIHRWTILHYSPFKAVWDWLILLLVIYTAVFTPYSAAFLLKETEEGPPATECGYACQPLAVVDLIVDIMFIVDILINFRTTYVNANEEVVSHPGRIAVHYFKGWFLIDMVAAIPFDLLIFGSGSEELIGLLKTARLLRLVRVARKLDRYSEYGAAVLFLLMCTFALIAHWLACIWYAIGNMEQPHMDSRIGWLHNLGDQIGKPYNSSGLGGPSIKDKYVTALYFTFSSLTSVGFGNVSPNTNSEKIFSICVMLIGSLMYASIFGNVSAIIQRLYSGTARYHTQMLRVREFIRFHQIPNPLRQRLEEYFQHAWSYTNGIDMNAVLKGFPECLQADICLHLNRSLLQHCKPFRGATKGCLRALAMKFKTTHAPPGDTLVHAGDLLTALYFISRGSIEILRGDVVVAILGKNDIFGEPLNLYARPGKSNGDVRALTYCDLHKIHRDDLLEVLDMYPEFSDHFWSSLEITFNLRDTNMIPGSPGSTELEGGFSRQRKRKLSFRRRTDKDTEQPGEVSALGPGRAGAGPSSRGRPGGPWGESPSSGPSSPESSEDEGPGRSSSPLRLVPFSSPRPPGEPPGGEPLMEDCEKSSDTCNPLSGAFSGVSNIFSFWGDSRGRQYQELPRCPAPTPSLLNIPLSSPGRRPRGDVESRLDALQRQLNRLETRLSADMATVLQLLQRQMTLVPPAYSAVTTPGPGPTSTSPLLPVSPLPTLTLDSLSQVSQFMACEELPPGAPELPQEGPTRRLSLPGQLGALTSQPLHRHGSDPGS
Chain of hERG (Q12809 whole entry): as above

## COc1cncc(OC[C@@H]2CNCCO2)c1-c1cc(Nc2cnc(C#N)cn2)n[nH]1 (stereo in doubt) [Example 12, 5-[(5-{3-methoxy-5-[(morpholin-2-yl)methoxy]pyridin-4-yl}-1H-pyrazol-3-yl)amino]pyrazine-2-carbonitrile]
ES-2 cells
  IC50: 100 to 300 nM
hERG current
  hERG/CHK1: 9118
CYP3A4
  microsomal CLint: 0.287 µL/min/mg
CHK1
  effect of suppressing CHK1 activity (in words): more potent effect of suppressing CHK1 activity than prexasertib
  inhibition at 0.0001 µM: 21%

## COc1cncc(OC[C@]2(F)CCNC2)c1-c1cc(Nc2cnc(C#N)cn2)n[nH]1 [Example 20, (S)-5-[(5-{3-[(3-fluoropyrrolidin-3-yl)methoxy]-5-methoxypyridin-4-yl}-1H-pyrazol-3-yl)amino]pyrazine-2-carbonitrile]
ES-2 cells
  IC50: < 30 nM
  cell growth suppression effect (in words): excellent cell growth suppression effect that is equivalent to that of prexasertib
hERG current
  hERG/CHK1: 11176
CYP3A4
  microsomal CLint: 1.11 µL/min/mg
CHK1
  effect of suppressing CHK1 activity (in words): more potent effect of suppressing CHK1 activity than prexasertib
  inhibition at 0.0001 µM: 6%

## COc1cncc(OC[C@@H](F)CN)c1-c1cc(Nc2cnc(C#N)cn2)n[nH]1 [Example 29, 5-[(5-{3-[(2S)-3-amino-2-fluoropropoxy]-5-methoxypyridin-4-yl}-1H-pyrazol-3-yl)amino]pyrazine-2-carbonitrile]
ES-2 cells
  IC50: < 30 nM
  cell growth suppression effect (in words): excellent cell growth suppression effect that is equivalent to that of prexasertib
hERG current
  hERG/CHK1: 18667
CYP3A4
  Factor of change in IC50 value: Not Detected
  microsomal CLint: 0.054 µL/min/mg

## COc1cncc(OC[C@@]2(F)CCNC2)c1-c1cc(Nc2cnc(C#N)cn2)n[nH]1 [Example 22, (R)-5-[(5-{3-[(3-fluoropyrrolidin-3-yl)methoxy]-5-methoxypyridin-4-yl}-1H-pyrazol-3-yl)amino]pyrazine-2-carbonitrile]
ES-2 cells
  IC50: < 30 nM
  cell growth suppression effect (in words): excellent cell growth suppression effect that is equivalent to that of prexasertib
hERG current
  hERG/CHK1: 12500
CYP3A4
  microsomal CLint: 0.349 µL/min/mg
CHK1
  effect of suppressing CHK1 activity (in words): more potent effect of suppressing CHK1 activity than prexasertib
  inhibition at 0.0001 µM: 22%

## COc1nccc(OCC2(CO)CNC2)c1-c1cc(Nc2cnc(C#N)cn2)n[nH]1 [Example 8, 5-{[5-(4-{[3-(hydroxymethyl)azetidin-3-yl]methoxy}-2-methoxypyridin-3-yl)-1H-pyrazol-3-yl]amino}pyrazine-2-carbonitrile]
ES-2 cells
  IC50: 30 to 100 nM
hERG current
  hERG/CHK1: >1000000
  IC50: > 100000 nM
hERG
  selectivity ratio: ≥ 100000
CYP3A4
  Factor of change in IC50 value: Not Detected
CHK1
  IC50: < 0.1 nM
  effect of suppressing CHK1 activity (in words): more potent effect of suppressing CHK1 activity than prexasertib; also recorded: especially potently suppressing CHK1 activity
  inhibition at 0.0001 µM: 51%

## COc1ccnc(OCCCN)c1-c1cc(Nc2cnc(C(F)(F)F)cn2)n[nH]1 [Example 16, N-{5-[2-(3-aminopropoxy)-4-methoxypyridin-3-yl]-1H-pyrazol-3-yl}-5-(trifluoromethyl)pyrazin-2-amine]
ES-2 cells
  IC50: 300 to 1000 nM
hERG current
  hERG/CHK1: <888
  IC50: < 2700 nM
CHK1
  inhibition at 0.0001 µM: < 5%

## COc1cncc(OC[C@H]2CNCCO2)c1-c1cc(Nc2cnc(C#N)cn2)n[nH]1 (stereo in doubt) [Example 13, 5-[(5-{3-methoxy-5-[(morpholin-2-yl)methoxy]pyridin-4-yl}-1H-pyrazol-3-yl)amino]pyrazine-2-carbonitrile]
ES-2 cells
  IC50: 300 to 1000 nM
hERG current
  hERG/CHK1: <3649
  IC50: < 2700 nM
CYP3A4
  microsomal CLint: 0.484 µL/min/mg
CHK1
  inhibition at 0.0001 µM: 6%

## Nc1ccn([C@@H]2O[C@H](CO)[C@@H](O)C2(F)F)c(=O)n1 [Gemcitabine]
Neutrophil count
  Ratio of residual neutrophils: 39%

## COc1cncc(OCC2(CN)CC2)c1-c1cc(Nc2cnc(C#N)cn2)n[nH]1 [Example 11, 5-{[5-(3-{[1-(aminomethyl)cyclopropyl]methoxy}-5-methoxypyridin-4-yl)-1H-pyrazol-3-yl]amino}pyrazine-2-carbonitrile]
ES-2 cells
  IC50: < 30 nM
  cell growth suppression effect (in words): excellent cell growth suppression effect that is equivalent to that of prexasertib
CHK1
  effect of suppressing CHK1 activity (in words): more potent effect of suppressing CHK1 activity than prexasertib
  inhibition at 0.0001 µM: 35%

## COc1cncc(OC[C@@H](C)CN)c1-c1cc(Nc2cnc(C#N)cn2)n[nH]1 [Example 27]
ES-2 cells
  IC50: < 30 nM
CHK1
  inhibition at 0.0001 µM: < 5%

## COc1ncnc(OCC2(CN)CC2)c1-c1cc(Nc2cnc(C#N)cn2)n[nH]1 [Example 23, 5-{[5-(4-{[1-(aminomethyl)cyclopropyl]methoxy}-6-methoxypyrimidin-yl)-1H-pyrazol-3-yl]amino}pyrazine-2-carbonitrile]
ES-2 cells
  IC50: < 30 nM
CHK1
  inhibition at 0.0001 µM: < 5%

## COc1cncc(OC[C@H](F)CN)c1-c1cc(Nc2cnc(C#N)cn2)n[nH]1 [Example 30, 5-[(5-{3-[(2R)-3-amino-2-fluoropropoxy]-5-methoxypyridin-4-yl}-1H-pyrazol-3-yl)amino]pyrazine-2-carbonitrile]
ES-2 cells
  IC50: < 30 nM
  cell growth suppression effect (in words): excellent cell growth suppression effect that is equivalent to that of prexasertib
hERG current
  hERG/CHK1: 40000
CYP3A4
  Factor of change in IC50 value: Not Detected
CHK1
  effect of suppressing CHK1 activity (in words): more potent effect of suppressing CHK1 activity than prexasertib
  inhibition at 0.0001 µM: 28%

## COc1cncc(OCC[C@@H](C)N)c1-c1cc(Nc2cnc(C#N)cn2)n[nH]1 [Example 9, 5-[(5-{3-[(3R)-3-aminobutoxy]-5-methoxypyridin-4-yl}-1H-pyrazol-3-yl)amino]pyrazine-2-carbonitrile]
ES-2 cells
  IC50: 30 to 100 nM
CHK1
  effect of suppressing CHK1 activity (in words): more potent effect of suppressing CHK1 activity than prexasertib
  inhibition at 0.0001 µM: 24%

## COc1cncc(OCC[C@H](C)N)c1-c1cc(Nc2cnc(C#N)cn2)n[nH]1 [Example 10, 5-[(5-{3-[(3S)-3-aminobutoxy]-5-methoxypyridin-4-yl}-1H-pyrazol-3-yl)amino]pyrazine-2-carbonitrile]
ES-2 cells
  IC50: 30 to 100 nM
CHK1
  effect of suppressing CHK1 activity (in words): more potent effect of suppressing CHK1 activity than prexasertib
  inhibition at 0.0001 µM: 20%

## COc1nccc(OCC2(O)CNC2)c1-c1cc(Nc2cnc(C#N)cn2)n[nH]1 [Example 7, 5-[(5-{4-[(3-hydroxyazetidin-3-yl)methoxy]-2-methoxypyridin-3-yl}-1H-pyrazol-3-yl)amino]pyrazine-2-carbonitrile]
ES-2 cells
  IC50: 30 to 100 nM
CHK1
  effect of suppressing CHK1 activity (in words): more potent effect of suppressing CHK1 activity than prexasertib
  inhibition at 0.0001 µM: 29%

## COc1ccnc(OCC2(CN)CC2)c1-c1cc(Nc2cnc(C#N)cn2)n[nH]1 [Example 37, 5-{[5-(2-{[1-(aminomethyl)cyclopropyl]methoxy}-4-methoxypyridin-3-yl)-1H-pyrazol-3-yl]amino}pyrazine-2-carbonitrile]
ES-2 cells
  IC50: < 30 nM
  cell growth suppression effect (in words): excellent cell growth suppression effect that is equivalent to that of prexasertib
hERG current
  hERG/CHK1: <8438
  IC50: < 2700 nM
CYP3A4
  Factor of change in IC50 value: Not Detected
  inhibition of CYP3A4 based on MBI (in words): do not exhibit inhibition of CYP3A4 based on MBI
CHK1
  effect of suppressing CHK1 activity (in words): more potent effect of suppressing CHK1 activity than prexasertib
  inhibition at 0.0001 µM: 18%

## COc1nccc(OCC2(C)CNC2)c1-c1cc(Nc2cnc(C#N)cn2)n[nH]1 [Example 6, 5-[(5-{2-methoxy-4-[(3-methylazetidin-3-yl)methoxy]pyridin-3-yl}-1H-pyrazol-3-yl)amino]pyrazine-2-carbonitrile]
ES-2 cells
  IC50: < 30 nM
  cell growth suppression effect (in words): excellent cell growth suppression effect that is equivalent to that of prexasertib
CHK1
  effect of suppressing CHK1 activity (in words): more potent effect of suppressing CHK1 activity than prexasertib
  inhibition at 0.0001 µM: 15%
